From patent US20100303758A1, “Novel Glucocorticoid Receptor Agonists” (priority 2009, published 2010)

Legend:
Format in all cases: cell-based
[1] = system: tumour necrosis factor-α (TNF-α) release from lipopolysaccharide (LPS) stimulated isolated human peripheral mononuclear cells (PBMC); test: Inhibition of TNF-α release from LPS stimulated isolated human PBMC; conditions: LPS stimulated human PBMC; 1 h pre-incubation, 18 hours after LPS; TNF-α by ELISA
In short: (§1)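 Human PBMC from EDTA blood of healthy donors, at 1×10^6 lymphocytes/ml in HBSS/HEPES/BSA buffer, were preincubated with compound (1% DMSO final) for 1 h at 37° C, then stimulated with LPS (added as 100 ng/ml solution) for 18 hours. Supernatant TNF-α was measured by ELISA, and IC50 was derived from dose-response curves.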

[2] = target: T1, human GR (Homo sapiens, UniProt P04150); test: GR agonist potency, MMTV-luciferase reporter in SW1353 cells; conditions: human chondrosarcoma cell-line SW1353 stably transfected with MMTV-luciferase reporter; approx. 18 hours; data as percentage of 1 μM dexamethasone positive control
T1 construct: SW1353 naturally expresses human GR; endogenous in cells; host or cells: human chondrosarcoma cell-line SW1353 stably transfected with an MMTV-luciferase reporter construct
T1 sequence (P04150 1-777): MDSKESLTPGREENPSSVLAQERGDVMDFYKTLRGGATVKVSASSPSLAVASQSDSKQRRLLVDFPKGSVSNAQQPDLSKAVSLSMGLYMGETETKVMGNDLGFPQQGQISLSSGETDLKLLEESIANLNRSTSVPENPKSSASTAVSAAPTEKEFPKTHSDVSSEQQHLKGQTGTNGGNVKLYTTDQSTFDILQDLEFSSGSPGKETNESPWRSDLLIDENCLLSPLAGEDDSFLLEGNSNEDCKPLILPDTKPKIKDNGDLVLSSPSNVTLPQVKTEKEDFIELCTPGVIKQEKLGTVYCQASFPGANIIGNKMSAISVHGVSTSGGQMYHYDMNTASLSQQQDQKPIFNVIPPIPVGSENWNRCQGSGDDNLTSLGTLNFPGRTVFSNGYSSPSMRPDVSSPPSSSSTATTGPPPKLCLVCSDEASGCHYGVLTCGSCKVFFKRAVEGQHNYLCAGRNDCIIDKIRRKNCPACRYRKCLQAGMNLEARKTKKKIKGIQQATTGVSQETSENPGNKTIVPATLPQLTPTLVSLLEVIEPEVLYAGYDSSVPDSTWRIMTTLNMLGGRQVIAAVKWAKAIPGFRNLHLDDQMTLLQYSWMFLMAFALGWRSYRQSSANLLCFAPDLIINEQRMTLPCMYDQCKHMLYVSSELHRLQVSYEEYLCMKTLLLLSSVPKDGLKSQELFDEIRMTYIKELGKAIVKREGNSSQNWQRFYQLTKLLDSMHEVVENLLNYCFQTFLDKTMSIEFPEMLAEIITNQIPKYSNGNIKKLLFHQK
In short: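 SW1353 chondrosarcoma cells stably carrying MMTV-luciferase, endogenous GR, exposed to compound ~18 h at 37 °C. Luminescence expressed as percent of 1 μM dexamethasone response; EC50 estimated from dose-response curves.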

[3] = Inhibition of TNF-α release from LPS stimulated isolated human PBMC; conditions: Homo sapiens, PBMC, read-out: IC50 (nM) for inhibition of TNF-α release
In short: as §1

With CC12C=CC(=O)C=C1CCC1C3CCC(OC(=O)c4ccc(Cc5ccccc5)cc4)(C(=O)OCC#N)C3(C)CC(O)C12F (centres unmarked) [Example 9] the IC50 [1] was 0.21 nM.
Compound CC12C=CC(=O)C=C1CCC1C3CCC(OC(=O)c4ccc(Sc5ccc(O)cc5)cc4)(C(=O)OCC#N)C3(C)CC(O)C12F (stereo not drawn) [Example 18, cyanomethyl (11beta,17alpha)-9-fluoro-11-hydroxy-17-({4-[(4-hydroxyphenyl)thio]benzoyl}oxy)-3-oxoandrosta-1,4-d iene-17-carboxylate] has an EC50 [2] of 34.9 nM and an IC50 [1] of 0.138 nM.
Compound CSc1ccc(Oc2ccc(C(=O)OC3(C(=O)OCF)C(C)CC4C5CC(F)C6=CC(=O)C=CC6(C)C5(F)C(O)CC43C)cc2)cc1 (stereo not drawn) [Example 52, Fluoromethyl (6alpha,11beta,16alpha, 17alpha)-6,9-difluoro-11-hydroxy-16-methyl-17-({4-[4-(methylthio)phenoxy]benzoyl}oxy)-3-oxoandrosta-1,4-diene-17-carboxylate] has an EC50 [2] of 6.05 nM and an IC50 [1] of 0.033 nM.
C[C@]12C=CC(=O)C=C1CC[C@H]1[C@@H]3CC[C@](OC(=O)c4ccc(Oc5ccccc5)c(O)c4)(C(=O)OCC#N)[C@@]3(C)C[C@H](O)[C@@]12F [Example 33, cyanomethyl(11beta,17alpha)-9-fluoro-11-hydroxy-17-[(3-hydroxy-4-phenoxybenzoyl)oxy]-3-oxoandrosta-1,4-diene-17-carboxylate] gave an EC50 [2] of 68.3 nM and an IC50 [3] of 0.212 nM.
C[C@]12C=CC(=O)C=C1CC[C@H]1[C@@H]3CC[C@](OC(=O)c4ccc(Sc5ccc(Cl)c(O)c5)cc4)(C(=O)OCC#N)[C@@]3(C)C[C@H](O)[C@@]12F [Example 39, cyanomethyl(11beta,17alpha)-17-({4-[(4-chloro-3-hydroxyphenyl)thio]benzoyl}oxy)-9-fluoro-11-hydroxy-3-oxoandrosta-1,4-diene-17-carboxylate] showed an EC50 [2] of 44.1 nM and an IC50 [3] of 0.615 nM.
C[C@]12C=CC(=O)C=C1[C@@H](F)C[C@H]1[C@@H]3CC[C@](OC(=O)c4ccc(-c5ccccc5)cc4)(C(=O)OCC#N)[C@@]3(C)C[C@H](O)[C@@]12F [Example 2, Cyanomethyl(6alpha,11beta,17alpha)-17-[(biphenyl-4-ylcarbonyl)oxy]-6,9-difluoro-11-hydroxy-3-oxoandrosta-1,4-diene-17-carboxylate] showed an EC50 [2] of 115 nM and an IC50 [3] of 0.373 nM.
CC12C=CC(=O)C=C1CCC1C3CCC(OC(=O)c4ccc(Oc5ccc(Cl)c(O)c5)cc4)(C(=O)OCC#N)C3(C)CC(O)C12F (stereo not drawn) [Example 34, cyanomethyl (11beta,17alpha)-17-{[4-(4-chloro-3-hydroxyphenoxy)-benzoyl]oxy}-9-fluoro-11-hydroxy-oxoandrosta-1,4-diene-17-carboxylate] gave an EC50 [2] of 100 nM and an IC50 [1] of 0.278 nM.
For C[C@]12C=CC(=O)C=C1CC[C@H]1[C@@H]3CC[C@](OC(=O)c4ccc(Oc5ccccc5)cc4)(C(=O)OCC#N)[C@@]3(C)C[C@H](O)[C@@]12F [Example 14, cyanomethyl(11beta,17alpha)-9-fluoro-11-hydroxy-3-oxo-17-[(4-phenoxybenzoyl)oxy]androsta-1,4-diene-17-carboxylate], the EC50 [2] was 23.9 nM and the IC50 [3] was 0.234 nM.
Work on C[C@]12C=CC(=O)C=C1CC[C@H]1[C@@H]3CC[C@](OC(=O)c4ccc(Sc5ccc(O)c(Cl)c5)cc4)(C(=O)SCF)[C@@]3(C)C[C@H](O)[C@@]12F [Example 27, (11beta,17alpha)-9-fluoro-17-[((fluoromethyl)thio]carbonyl)-11-hydroxy-3-oxoandrosta-1,4-dien-17-yl 4-[(3-chloro-4-hydroxyphenyl)thio]benzoate] yielded an EC50 [2] of 43.3 nM and an IC50 [3] of 0.326 nM.
